From patent publication US20140243418A1, “RASAGILINE FOR PARKINSON'S DISEASE MODIFICATION” (Teva Pharmaceutical Industries, Ltd., priority 2008, published 2014)

Columns and labels:
[1] = tested on: PD patients; settings: cited from earlier work
[2] = tested on: Early Stage PD patients
From the text: If, at any stage during the placebo-controlled phase the investigator determines that a subject needs additional anti-PD therapy, the subject will proceed to Phase II of the study. The investigator, aided by a questionnaire, will give careful consideration to the issue of a subject's need for additional anti-PD therapy. Scheduled in-clinic visits will be conducted at baseline and at weeks 4, 12, 24 and 36. Therefore, altogether there will be 5 scheduled visits during this phase. Unscheduled visits may be conducted at any time to assess a subject's need for additional anti-PD therapy, for safety reasons or for any other reason.
III. Additional Efficacy Endpoints • 1. Number (%) of subjects who need additional anti-PD therapy • 2. Time to need of additional anti-PD therapy • 3. Change from baseline to LOV in placebo-controlled phase in Part I of revised UPDRS (version 4)

[3] = tested on: Early Stage PD patients; settings: rasagiline 1 mg and 2 mg; end of the PC phase
From the text: IV. Sub-Study • 1. Change from baseline to LOV in placebo-controlled phase in Parkinson Fatigue scale • 2. Change from baseline in Subject Reported Outcomes (US only) • 3. A blood sample for pharmacogenetic analysis will be collected from all subjects at baseline. If not performed at baseline, can be performed at any other visit. Participation in this sub-study is voluntary pending IRB/EC approval and subject's authorization on a separate informed consent form.

Question: Which “functional decline vs treatment delayed for 6 months” value ([1]; 1 and 2 mg/d rasagiline for one year, TEMPO) does the source give for `C#CCN[C@@H]1CCc2ccccc21` [rasagiline] here?
Answer: less functional decline

Question: And the “efficacy as monotherapy in PD patients” value ([1]; first 6-month double-blind, randomized placebo-controlled stage of TEMPO)?
Answer: efficacious as monotherapy

Question: What about the “Hazard Ratio, time to additional anti-PD therapy, 1 mg-Placebo Difference” value ([2]; PC Phase, rasagiline 1 mg vs placebo, Cox Proportional Hazards Model) of the same molecule?
Answer: 0.385

Question: And the “Hazard Ratio, time to additional anti-PD therapy, 2 mg-Placebo Difference” value ([2]; PC Phase, rasagiline 2 mg vs placebo, Cox Proportional Hazards Model)?
Answer: 0.379

Question: And the “Need for additional anti PD Therapy” value ([2]; rasagiline 1 mg and 2 mg, end of the PC phase)?
Answer: beneficial effect

Question: What about the “Parkinson Fatigue Scale” value [3] of the same molecule?
Answer: beneficial effect
